Reference: US8603437B2, “Methods for tumor diagnosis and therapy” (President and Fellows of Harvard College, priority 2000, dated 2013)

Experiments:
[1] = Biodistribution in normal mice after i.v. injection; type: in vivo; details: for affinity / avidity for normal tissues: 1 hour and 24 hours; for injected dose remaining in the body by 24 hours: ~5 μCi/100 μl
Experimental: Mice (n=30) were injected i.v. with the radiopharmaceutical (˜5 μCi/100 μl), the animals were killed at 1 hour (n=15) and 24 hours (n=15), and the radioactivity associated with blood, tissues, and organs was determined.
The biodistribution of ^125I-labeled Compound B was also examined in various tissues in normal mice. […] However, by 24 hours (FIG. 5), all tissues and organs (with the exception of minimal activity in the thyroid) were virtually void of radioactivity (<4% of the injected dose remained in the body by 24 hours).

[2] = Retention of radioactivity in forelimb after s.c. injection, and 24 hour biodistribution; type: in vivo, mice
Experimental: […] […] The animals were killed after 1 hour, 24 hours, and 48 hours, the radioactivity associated with the forelimbs was measured, and the percentage of radioactivity remaining was calculated (at the 24 hour time point, the biodistribution of radioactivity in various tissues and organs was also determined).

Solubility observations = type: physicochemical
[3] = Chemical nature of radioactivity in blood (stability), TLC and autoradiography of blood samples; type: in vivo, mice; details: blood samples from first 40 min, ethanol supernatant, TLC; single spot with same Rf as 127I-labeled Compound A
Description: The plates were run in acetonitrile-water (1.5:2) and autoradiographed.

[4] = test system: alkaline phosphatase (ALP)
Experimental: The animals were killed 1 hour later and the radioactivity in the forelimbs was measured.

[5] = test system: alkaline phosphatase (ALP); details: ~10 μCi/100 μl 0.1 M Tris pH 7.2, 5 units ALP; only with active enzyme, not heat-inactivated ALP
[6] = mouse, in vivo, iv
[7] = Blood clearance after i.v. injection in mice; details: bled over 1 hour, blood radioactivity

| Compound | radioactivity in all tissues examined at 1 hour ([1]; 1 hour) [% ID/g] | affinity / avidity for normal tissues [1] | injected dose remaining in the body by 24 hours [1] | localization of escaped radioactivity in normal tissues ([2]; biodistribution 24 hours after s.c. injection) | change in forelimb radioactivity between 24 hours and 48 hours ([2]; s.c. forelimb) | injected activity remaining at the injection site at 24 hours ([2]; s.c. right forelimb, 5 μl DMSO solution followed by 5 μl saline) [%] | solubility in DMSO (Solubility observations; 100 μl DMSO) | behaviour on adding water to the DMSO solution (Solubility observations; 100 μl water added to 100 μl DMSO) | stability in blood: chemical nature of radioactivity [3] | dehalogenation (thyroid activity) [1] | radioactive content within forelimbs pre-injected with ALP ([4]; ALP 50-400 units/10 μl s.c., 20 μCi i.v. five minutes later, killed 1 hour later) | uptake in forelimbs pre-injected with heat-inactivated ALP ([4]; heat-inactivated ALP s.c., i.v. prodrug, 1 hour) | fraction seeped out of the s.c. pocket by 24 hours ([2]; s.c. left forelimb, 5 μCi/5 μl saline followed by 5 μl DMSO) | conversion to 125I-labeled Compound B [5] | blood clearance of radioactivity [6] | T1/2β [7] [min] |
| --- | --- | --- | --- | --- | --- | --- | --- | --- | --- | --- | --- | --- | --- | --- | --- | --- |
| O=c1[nH]c(-c2ccccc2O)nc2ccc(I)cc12 [^125-I labeled Compound B, 2-(2′-Hydroxyphenyl)-6-iodo-4-(3H)-quinazolinone] | < 15 | no avidity for any tissue | < 4 % of the injected dose | does not localize in any normal tissues | no change | 71±5 | completely soluble | visible precipitate forms immediately | – | – | – | – | – | – | – | – |
| N.O=c1[nH]c(-c2ccccc2OP(=O)(O)O)nc2ccc(I)cc12 [^125-I labeled Compound A, Ammonium 2-(2′-Phosphoryloxyphenyl)-6-iodo-4-(3H)-quinazolinone] | – | low affinity to normal tissues | < 20 % of the injected dose | – | – | – | – | – | no evidence of free iodine | minimal dehalogenation | increased with enzyme dose and plateaued at the highest concentrations | no increase in uptake | greater than 98% | complete conversion | rapid biphasic blood clearance | 51.1 ± 6.8 |
